These are literature values, as cited in US11654127B2, “Composition for use in the prevention and/or treatment of Oncologic Treatment Induced Orogastrointestinal Mucositis” (Mucosa Innovations, S.L., priority 2017, dated 2023).

For the data set, the system named is OTIOM. Particulars: saliva stimulant.

For the molecule `CC[C@@H]1C(=O)OC[C@@H]1Cc1cncn1C` [pilocarpine], the “effect in preventing or treating OTIOM” value is given as “no beneficial effect”.
